The values that follow come from ChEMBL document CHEMBL1201862, “PubChem BioAssay data set” (2004).

Holding throughout (assay): NCI-60 cell line screen, 48 h
Experiment [1] concerns ACHN.
Experiment [2] deals with CAKI-1.
Experiment [3] concerns EKVX.
Experiment [4] has as its system HL-60.
Experiment [5] concerns HT-29.
In experiment [6] the test system is K562.
Experiment [7] relates to MDA-MB-231.
The subject of experiment [8] is MDA-N.
Experiment [9] concerns Malme-3M.
Experiment [10] has as its system NCI-H226.
The subject of experiment [11] is NCI-H23.
Experiment [12] concerns NCI-H522.
Experiment [13] concerns NCI/ADR-RES.
Experiment [14] has as its system OVCAR-3.
Experiment [15] has as its system OVCAR-4.
Experiment [16] has as its system RXF 393.
The test system of experiment [17] is SF-268.
Experiment [18] relates to SF-539.
Experiment [19] has as its system UACC-257.
For experiment [20], the system named is UACC-62.

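1) Cells in 96-well plates. 2) Compound, 48 h, 5 concentrations. 3) Linear interpolation between surrounding doses. 4) Unreached endpoint = highest concentration. Here, GI50 denotes the concentration required for 50% inhibition of growth.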 Activity calls are given as the source filed them. Rule as the data show it: active = GI50 up to about 1.1 µM and inactive = higher. Where only a bound is given, the exact number is not on record here.

In the case of `Cc1cc(C)nc(NS(=O)(=O)c2ccc(Nc3c4ccccc4nc4ccc(C(=O)Nc5ccc(S(=O)(=O)N=C(N)N)cc5)cc34)cc2)n1`, the GI50 in [1] is > 100 µM (inactive); in experiment [2], > 100 µM (inactive); in [3], > 100 µM (inactive); in experiment [4] it was 34.3 µM (inactive); in [5], 59.4 µM (inactive); in experiment [6], 25.2 µM (inactive). Also, the GI50 in experiment [7] is 81.8 µM (inactive); in experiment [8], > 100 µM (inactive); in [9], 30.7 µM (inactive); in experiment [10] it was > 100 µM (inactive); in experiment [11], > 100 µM (inactive); in experiment [12], 65.8 µM (inactive). Further, the GI50 in experiment [13] is > 100 µM (inactive); in experiment [14] it was 43.4 µM (inactive); in [15] it was 55.3 µM (inactive); in [16], 50.8 µM (inactive); in [17] it was 69.5 µM (inactive); in experiment [18] it was > 100 µM (inactive). Moreover, the GI50 was 72.3 µM (inactive) in experiment [19] and > 100 µM (inactive) in experiment [20].
Take `COc1ccc(/C=C/C(=O)c2ccccc2)cc1OC`: the GI50 in experiment [1] was 15.5 µM (inactive); in experiment [2] it was 15.7 µM (inactive); in experiment [3] it was 14.8 µM (inactive); in experiment [4], 8.89 µM (inactive); in [5], 5.3 µM (inactive); in experiment [6], 3.21 µM (inactive). For the same molecule, the GI50 is 19.5 µM (inactive) in experiment [7]; 4.13 µM (inactive) in experiment [8]; 16.7 µM (inactive) in experiment [9]; 19.8 µM (inactive) in [10]; 20.7 µM (inactive) in experiment [11]; 6.85 µM (inactive) in experiment [12]. For the same molecule, the GI50 in experiment [13] is 21.2 µM (inactive); in [14], 11.4 µM (inactive); in experiment [15], 16.7 µM (inactive); in [16] it was 14.3 µM (inactive); in [17], 14.5 µM (inactive); in experiment [18] it was 11.1 µM (inactive). The results for the GI50 in experiment [19] and in experiment [20] were 17.3 µM (inactive) and 13.4 µM (inactive), respectively.
As to `C=CC(COC(=O)C(C)(C)OC(C)=O)c1ccc(OC(=O)C(C)C)c(OC)c1` (stereo not given), the GI50 in experiment [1] is 2.88 µM (inactive); in experiment [2] it was 1.96 µM (inactive); in experiment [3], 12.7 µM (inactive); in [4] it was 4.6 µM (inactive); in experiment [5], 3.27 µM (inactive); in [6] it was 30.5 µM (inactive). In addition, the GI50 in experiment [7] was 2.64 µM (inactive); in experiment [8], 3.52 µM (inactive); in [9], 2.7 µM (inactive); in [10] it was 18.2 µM (inactive); in [11], 18.8 µM (inactive); in experiment [12], 2.23 µM (inactive). In addition, the GI50 in experiment [13] is 11 µM (inactive); in experiment [14] it was 4.76 µM (inactive); in experiment [15], 7.89 µM (inactive); in experiment [16], 6.07 µM (inactive); in [17], 5.2 µM (inactive); in experiment [18], 11.8 µM (inactive). Also, the GI50 in experiment [19] was 14.6 µM (inactive); in experiment [20], 11.8 µM (inactive).
In the case of `CC12CCCCC1=C(F)C(F)(F)S2` (stereo not given), the GI50 in [1] is 22.1 µM (inactive); in experiment [2], 21.5 µM (inactive); in [3] it was > 78.7 µM (inactive); in experiment [4], 6.64 µM (inactive); in experiment [5], 20.8 µM (inactive); in experiment [6], 17.5 µM (inactive). The GI50 in experiment [7] is 83.9 µM (inactive); in experiment [8] it was 21.9 µM (inactive); in [9], 24.4 µM (inactive); in [10], > 100 µM (inactive); in experiment [11], 52.1 µM (inactive); in experiment [12] it was 21.5 µM (inactive). Further, the GI50 in experiment [13] was 40.1 µM (inactive); in experiment [14] it was 19.7 µM (inactive); in [15] it was 48.3 µM (inactive); in experiment [16], 20.5 µM (inactive); in experiment [17], > 66.4 µM (inactive); in experiment [18], > 70.6 µM (inactive). In addition, the GI50 in experiment [19] was 20.1 µM (inactive); in experiment [20], 42.4 µM (inactive).
In the case of `COc1c2c3c4c(c(OC)c(=O)c5c(O)cc(OC)c(c6c(OC)cc(O)c(c1=O)c63)c54)C(C(C)O)C2C(C)=O` (stereo not given), the GI50 in [1] is 0.497 µM (active); in experiment [2], 0.279 µM (active); in experiment [3] it was 0.482 µM (active); in experiment [4] it was 0.334 µM (active); in experiment [5], 0.47 µM (active); in [6], 0.234 µM (active). The GI50 in experiment [7] was 0.741 µM (active); in experiment [8] it was 0.282 µM (active); in [9] it was 0.448 µM (active); in experiment [10], 0.528 µM (active); in experiment [11] it was 0.331 µM (active); in [12], 0.171 µM (active). The GI50 was 0.296 µM (active) in experiment [13]; 0.338 µM (active) in experiment [14]; 0.46 µM (active) in [15]; 0.06 µM (active) in experiment [16]; 0.492 µM (active) in experiment [17]; 0.296 µM (active) in experiment [18]. Further, the values for the GI50 in experiment [19] and in experiment [20] were 0.521 µM (active) and 0.483 µM (active), respectively.
With `CC(=O)c1[nH]c(NCc2ccccc2)c(C(=S)Nc2ccccc2)c1N`, the GI50 is 29 µM (inactive) in [1]; 31 µM (inactive) in [2]; 27.1 µM (inactive) in experiment [3]; 5.32 µM (inactive) in experiment [4]; 31.3 µM (inactive) in [5]; 24.9 µM (inactive) in experiment [6]. The GI50 in [7] was 15.1 µM (inactive); in experiment [8], 18.7 µM (inactive); in experiment [9], 19.7 µM (inactive); in experiment [10], 18.2 µM (inactive); in [11], 38.8 µM (inactive); in experiment [12] it was 0.0383 µM (active). For the same molecule, the GI50 in [13] was 30.6 µM (inactive); in experiment [14], 26.7 µM (inactive); in experiment [15] it was 26.4 µM (inactive); in experiment [16], 18.9 µM (inactive); in experiment [17], 21.5 µM (inactive); in experiment [18] it was 1.88 µM (inactive). For the same molecule, the GI50 is 24.2 µM (inactive) in [19] and 16.6 µM (inactive) in [20].
